Read-outs that look alike come from different tables or passages of the source.
Assay: Whole-blood PK study (IV, IP and PO) in male CD-1 mice
Type: in vivo, mouse
Conditions: for Bioavailability: read-out: Bioavailability; for cmax: read-out: cmax; for concentration at 0.5 h: 0.50 h; for Vd: read-out: Vss; for Tmax: CD-1, whole blood
Method: Nine male CD-1 mice (25–35 g) were obtained from Hilltop Labs. Duration of acclimation was at least two days. Animals were randomly assigned to the three dose groups (IV, PO, intraperitoneal (IP), N = 3 per group), healthy at the start of the trial, housed one per cage (conventional type with wood chip bedding material), identified by a cage label and maintained in a well-controlled temperature (20–24 C) and humidity (30%-70%) environment with 12 h light/dark cycles. Animals intended for IV dosing were fitted with a jugular vein cannula (JVC, procedure see rat plasma PK study above). The study was not blinded. Food was withheld from the animals for a minimum of 12 h prior to test article administration until 4 h post-dose. Water was offered ad libitum.
C16 was dosed in cassette together with two undisclosed compounds of similar chemical structure. The dose of each test article was 1 mg/kg (IV, JVC, 0.5 mg/mL) or 10 mg/kg (IP and PO gavage, 2 mg/mL). Two respective dosing solutions were prepared (protocol see above) containing 0.5 and 2 mg/mL of C16 (and equal concentrations of the other two test articles) in 20% DMSO / 10% (DMSO / Cremophor EL 1:1) / 70% H2O. Formulations were prepared one day prior to dosing and stored at 4 °C.
Blood samples were taken pre-dose and 5 (except for PO administration), 15, 30 min, 1, 2, 4, and 8 h after dosing. The samples were collected via the tail vein or by cardiac puncture (8 h time point). Blood (25 μL) was collected and pipetted into a tube with 25 μL heparinized water (1 μL of sodium heparin (1000 unit/ml) + 24 μL water) within 30 seconds of collection. The sample was pipetted up and down five times, immediately frozen on dry ice and stored at -60°C to -80°C until analyzed. No necropsy was performed.
Pharmacokinetic parameters were estimated by a non-compartmental model using WinNonlin (v5.2.1 or higher) software. The maximum plasma/blood concentrations (c0) after IV dosing were estimated by extrapolation of the first two time points back to t = 0. The maximum blood concentration (cmax) and the time to reach maximum blood drug concentration (tmax) after PO dosing were derived from the data. The area under the time-concentration curve (AUC) was calculated using the linear trapezoidal rule with calculation to the last quantifiable data point, and with extrapolation to infinity if applicable. Plasma/blood half-life (t1/2) was calculated from 0.693/slope of the terminal elimination phase. Mean residence time (MRT) was calculated by dividing the area under the moment curve (AUMC) by the AUC. Clearance (CL) was calculated from dose/AUC. Steady-state volume of distribution (Vss) was calculated from CL*MRT. Bioavailability was determined by dividing the individual dose-normalized PO AUC values by the respective average dose-normalized intravenous (IV) AUC value. Samples that were below the limit of quantification were not used in the calculation of averages, and were treated as zero for pharmacokinetic data analysis. […]
Sprague-Dawley rats at 10 mg/kg (in 100% DMSO). […]
c Bioavailability determined by dividing the individual dose normalized oral AUC last by the average dose normalized intravenous AUC last value. […]
The dosing solution was prepared as a cassette to contain all three test articles in the same solutions using a vehicle
consisting of 20% DMSO/10% (DMSO/Cremophor EL 1:1)/70% Milli-Q water.
Individual blood concentrations and pharmacokinetic parameters are shown in Table H through Table J. All data are
expressed as ng/mL of the free drug. Samples that were below the limit of quantification were not used in the
calculation of averages. Concentration versus time data are plotted in Fig D through Fig F.
Table H. Individual blood concentrations (ng/mL) and PK parameters for C16 after IV administration in male CD-1 mice at 1 mg/kg.
t (h) 0 (pre-dose) BLOQ BLOQ BLOQ
(1 picture or pasted object on this page, not shown here)

[1] = male, CD-1, mouse, whole blood, ip, 10 mg/kg, male CD-1 mouse, IP 10 mg/kg, average
[2] = male, CD-1, mouse, whole blood, ip, 10 mg/kg, mouse blood, IP 10 mg/kg, individual animals 4-6
[3] = male, CD-1, mouse, whole blood, ip, 10 mg/kg, mouse, IP 10 mg/kg, animals 4-6, read-out: Individual blood concentration
[4] = male, CD-1, mouse, whole blood, ip, 10 mg/kg, whole blood, male CD-1 mouse, IP 10 mg/kg, average
[5] = male, CD-1, mouse, whole blood, iv, 1 mg/kg, male CD-1 mouse, IV 1 mg/kg, average
[6] = male, CD-1, mouse, whole blood, iv, 1 mg/kg, mouse blood, IV 1 mg/kg, individual animals 1-3
[7] = male, CD-1, mouse, whole blood, iv, 1 mg/kg, mouse, IV 1 mg/kg, animals 1-3, read-out: Individual blood concentration
[8] = male, CD-1, mouse, whole blood, po, 10 mg/kg, male CD-1 mouse, PO 10 mg/kg, average
[9] = male, CD-1, mouse, whole blood, po, 10 mg/kg, mouse blood, PO 10 mg/kg, individual animals 7-9
[10] = male, CD-1, mouse, whole blood, po, 10 mg/kg, whole blood, male CD-1 mouse, PO 10 mg/kg, average

SMILES: COc1cc(C(=O)/C=C/c2ccc(F)cc2)cc(OC)c1OC [C16, 4-fluoro-3’,4’,5’-trimethoxychalcone]
- time of maximum blood concentration (male CD-1 mouse, IP 10 mg/kg): 15 min
- time of maximum blood concentration (male CD-1 mouse, PO 10 mg/kg): 15 min
- AUC(0-inf) [1]: 114 ng·h/mL
- AUC(0-t) [1]: 109 ng·h/mL
- MRT last [1]: 48 min
- half-life [1]: 48 min
- AUC(0-inf) [2]: 101 ng·h/mL
- AUC(0-t) [2]: 99.2 ng·h/mL
- MRT last [2]: 59.5 min
- half-life [2]: 38.2 min
- Bioavailability [2]: 49.7%
- cmax [2]: 90.3 ng/mL
- concentration at 0.25 h [3]: 90.3 ng/mL
- concentration at 0.5 h [3]: 48.2 ng/mL
- concentration at 1 h [3]: 49.2 ng/mL
- concentration at 2 h [3]: 13.4 ng/mL
- Bioavailability [4]: 54.7%
- cmax [4]: 107 ng/mL
- AUC(0-inf) [5]: 22.4 ng·h/mL
- AUC(0-t) [5]: 20 ng·h/mL
- MRT last [5]: 26 min
- clearance [5]: 750 mL/min/kg
- half-life [5]: 44.8 min
- C0 (male, CD-1, mouse, whole blood, iv, 1 mg/kg, male CD-1 mouse, IV 1 mg/kg, average, extrapolated to t = 0): 76 ng/mL
- AUC(0-inf) [6]: 22.9 ng·h/mL
- AUC(0-t) [6]: 20.2 ng·h/mL
- MRT last [6]: 25.6 min
- clearance [6]: 727 mL/min/kg
- half-life [6]: 49.4 min
- Vd [6]: 32.8 L/kg
- concentration at 0.083 h (male, CD-1, mouse, whole blood, iv, 1 mg/kg, mouse, IV 1 mg/kg, 0.083 h, animals 1-3, read-out: Individual blood concentration): 46.4 ng/mL
- concentration at 0.25 h [7]: 17.3 ng/mL
- concentration at 0.5 h [7]: 8.4 ng/mL
- concentration at 1 h [7]: 4.5 ng/mL
- concentration at 2 h [7]: 2.28 ng/mL
- Vd (male, CD-1, mouse, whole blood, iv, 1 mg/kg, whole blood, male CD-1 mouse, IV 1 mg/kg, average): 32.6 L/kg
- AUC(0-t) [8]: 20.9 ng·h/mL
- MRT last [8]: 82.8 min
- half-life (male, CD-1, mouse, whole blood, po, 10 mg/kg, mouse blood, PO 10 mg/kg, individual animal 7): 176 min
- AUC(0-t) [9]: 23.2 ng·h/mL
- Bioavailability [9]: 11.6%
- Bioavailability [10]: 10.5%
- cmax [10]: 12.5 ng/mL
- Tmax (male, mouse blood, IP 10 mg/kg, individual animals 4-6): 15 min
- Tmax (male, mouse blood, IV 1 mg/kg, individual animals 1-3): 0 min
